According to PMC7311426, “An amphipathic peptide with antibiotic activity against multidrug-resistant Gram-negative bacteria” (Nature Communications, 2020):
Marks after values point to notes of the source that are not given here.

Legend:
Assay in all cases: microbe, parasite or virus in culture
[1] = test system: K. pneumoniae; settings: mode of 6 replicates
Method in brief: (§1)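 MICs were scored by eye after 18-20 h static incubation at 37 °C, with bacteria at 5 × 10^5 CFU mL^−1 in MHB. Peptides were serially diluted 2-fold over 12 points, top 128 or 64 μg mL^−1. CAMHB (CLSI) and 1% agarose-MHB variants were also run, at least six replicates.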

[2] = test system: S. enterica Typhi; settings: S. enterica Typhi ATCC 14028 control strain, CDC 6516-60; CAMHB; mode of 6 replicates
Method in brief: as §1

[3] = test system: P. aeruginosa; settings: mode of 6 replicates
Method in brief: as §1

[4] = test system: E. coli
Method in brief: as §1

[5] = test system: S. aureus; settings: S. aureus ATCC 25923 MSSA; MHB; mode of 6 replicates
Method in brief: as §1

[6] = test system: A. baumannii; settings: mode of 6 replicates
Method in brief: as §1

[7] = test system: A. baumannii clinical isolates
Method in brief: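 MIC90 from CLSI broth microdilution (M07-A9) in two clinical-isolate panels. US panel (331 isolates, 2010-2012): AA139 diluted in 0.01% acetic acid/0.1% BSA. Worldwide panel (445 isolates, 2011-2013, four regions): CAMHB, with 0.002% Tween 80 added for AA139 and polymyxin B.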

[8] = A. baumannii, worldwide isolates 2011-2013, n = 108

Substance: polymyxin B [PolymyxinB, reference compound]
- BMD MIC ([1]; K. pneumoniae ATCC 13883 type strain (polymyxin/colistin heteroresistant), MHB): 0.5-8# μg mL-1
- BMD MIC ([1]; K. pneumoniae ATCC 700603 (K6), MDR, OXA-2/SHV-18, CAMHB): 0.06 µg/mL
- BMD MIC ([1]; K. pneumoniae ATCC 700603 (K6), MDR, OXA-2/SHV-18, MHB): 0.125 µg/mL
- BMD MIC ([1]; K. pneumoniae BAA-2146, MDR, ESBL, NDM-1 pos, MHB): 0.125 µg/mL
- BMD MIC ([1]; K. pneumoniae Greece CI 8_GR_13, XDR, KPC-2, PmxR, MHB): 32 µg/mL
- BMD MIC [2]: 0.03 µg/mL
- BMD MIC ([3]; P. aeruginosa ATCC 27853 control strain, CAMHB): ≤0.25 µg/mL
- BMD MIC ([3]; P. aeruginosa ATCC 27853 control strain, MHB): 0.25 µg/mL
- BMD MIC ([3]; P. aeruginosa FADDI-070, MDR, PmxR, MHB/CAMHB): 32 µg/mL
- MIC against E. coli AID#172 MDR clinical isolate ([4]; BMD): 0.03 µg/mL
- BMD MIC ([4]; E. coli ATCC 25922 FDA control strain, CAMHB, mode of 6 replicates): 0.125 µg/mL
- BMD MIC ([4]; E. coli ATCC 25922 FDA control strain, MHB, mode of 6 independent biological replicates): 0.25 µg/mL
- BMD MIC ([4]; E. coli ATCC 700926 K12 (MG1655), CAMHB, mode of 6 replicates): 0.015 µg/mL
- BMD MIC ([4]; E. coli ATCC 700928 CFT073 UPEC, CAMHB, mode of 6 replicates): ≤0.25 µg/mL
- BMD MIC ([4]; E. coli CI 12-6-83 Hong Kong, mcr-1 pos, ESBL, CAMHB, mode of 6 replicates): 2 µg/mL
- BMD MIC [5]: 128 µg/mL
- BMD MIC ([6]; A. baumannii ATCC 19636 type strain, CAMHB): 0.06 µg/mL
- BMD MIC ([6]; A. baumannii ATCC 19636 type strain, MHB): 0.03 µg/mL
- BMD MIC ([6]; A. baumannii Greece CI, XDR, PmxR, MHB): 8 to 16 µg/mL
- Number of isolates with MIC 0.125 (MIC frequency distribution) [7]: 4
- MIC50 [7, 8]: 0.03 µg/mL
- MIC90 [7, 8]: 0.125 µg/mL
- Number of isolates with MIC 0.03 (MIC frequency distribution) ([7]; A. baumannii, worldwide isolates 2011-2013, n = 108, count of isolates at MIC 0.03): 75
- Number of isolates with MIC 0.06 (MIC frequency distribution) ([7]; A. baumannii, worldwide isolates 2011-2013, n = 108, count of isolates at MIC 0.06): 18
- Number of isolates with MIC 0.25 (MIC frequency distribution) ([7]; A. baumannii, worldwide isolates 2011-2013, n = 108, count of isolates at MIC 0.25): 0
- Number of isolates with MIC 0.5 (MIC frequency distribution) ([7]; A. baumannii, worldwide isolates 2011-2013, n = 108, count of isolates at MIC 0.5): 2
- Number of isolates with MIC 1 (MIC frequency distribution) ([7]; A. baumannii, worldwide isolates 2011-2013, n = 108, count of isolates at MIC 1): 2
- Number of isolates with MIC 2 (MIC frequency distribution) ([7]; A. baumannii, worldwide isolates 2011-2013, n = 108, count of isolates at MIC 2): 1
- Number of isolates with MIC 4 (MIC frequency distribution) ([7]; A. baumannii, worldwide isolates 2011-2013, n = 108, count of isolates at MIC 4): 1
- Number of isolates with MIC 8 (MIC frequency distribution) ([7]; A. baumannii, worldwide isolates 2011-2013, n = 108, count of isolates at MIC 8): 3
- Number of isolates with MIC 16 (MIC frequency distribution) ([7]; A. baumannii, worldwide isolates 2011-2013, n = 108, count of isolates at MIC 16): 0
- Number of isolates with MIC 32 (MIC frequency distribution) ([7]; A. baumannii, worldwide isolates 2011-2013, n = 108, count of isolates at MIC 32): 0
- Number of isolates with MIC 64 (MIC frequency distribution) ([7]; A. baumannii, worldwide isolates 2011-2013, n = 108, count of isolates at MIC 64): 0
- Number of isolates with MIC 128 (MIC frequency distribution) ([7]; A. baumannii, worldwide isolates 2011-2013, n = 108, count of isolates at MIC 128): 0
- Number of isolates with MIC >16 (MIC frequency distribution) ([7]; A. baumannii, worldwide isolates 2011-2013, n = 108, count of isolates at MIC >16): 0
- Number of isolates with MIC >32 (MIC frequency distribution) ([7]; A. baumannii, worldwide isolates 2011-2013, n = 108, count of isolates at MIC >32): 0
- Number of isolates with MIC >128 (MIC frequency distribution) ([7]; A. baumannii, worldwide isolates 2011-2013, n = 108, count of isolates at MIC >128): 0
- Number of isolates with MIC ≤0.015 (MIC frequency distribution) ([7]; A. baumannii, worldwide isolates 2011-2013, n = 108, count of isolates at MIC ≤0.015): 2
